What was measured:
Assay in all cases: Greenhouse herbicidal activity test, post-emergence
Type in all cases: in vivo
Alopecurus japonicus = details: determined 21 days later; for inhibition at 7.5 g/ha / inhibition at 15 g/ha: Alopecurus japonicus, 504 h, read-out: fresh weight inhibition rate, Alopecurus japonicus
Source text: (§1) A herbicidal activity test method for the compounds of the present invention was as follows:
(§2) Post-emergence: an appropriate quantity of seeds of gramineous weeds (Echinochloa crusgalli, Eleusine indica, Digitaria sanguinalis, Alopecurus japonicus, Beckmannia syzigachne, Leptochloa chinensis, Polypogon fugax, Alopecurus aequalis, Lolium multiflorum, and Poa annua), broad-leaved weeds (Eclipta prostrata, Amaranthus retroflexus, Brassica juncea, Malachium aquaticum, Conyza canadensis, and Sesbania cannabina), and Cyperus iria were sown in plastic pots having a diameter of 7 cm and holes at the bottom and filled with nutrient soil (sandy soil, pH 6.1, organic matter 1%) respectively, the seeds were covered with an appropriate amount of soil after being sown, then the soil was wetted with water from the bottom, the seeds were cultured in a constant-temperature illuminated culture room until a 2-4 leaf stage, and stems and leaves underwent spray treatment. After the treatment, the test materials were placed in a laboratory and cultured in the constant-temperature illuminated culture room after the liquid was naturally dry in the shade, and results were determined 21 days later.
(§3) According to the foregoing test method, a parallel experiment was carried out on herbicidal activities of some compounds of the general formula (I), the compound Butafenacil (compound 47 in the patent specification) specifically disclosed in U.S. Pat. No. 5,183,492A, and the compound CK (compound 1 in the patent specification) specifically disclosed in U.S. Pat. No. 5,183,492A, at application doses of 7.5 g a.i./ha and 15 g a.i./ha.

Polypogon fugax = details: determined 21 days later; for inhibition at 7.5 g/ha / inhibition at 15 g/ha: Polypogon fugax, 504 h, read-out: fresh weight inhibition rate, Polypogon fugax
Source text: as §1, §2, §3

Sesbania cannabina = details: determined 21 days later; for inhibition at 7.5 g/ha / inhibition at 15 g/ha: Sesbania cannabina, 504 h, read-out: fresh weight inhibition rate, Sesbania cannabina
Source text: as §1, §2, §3

Structure (SMILES) | fresh weight inhibition rate, Alopecurus japonicus (Alopecurus japonicus; dose 7.5 g a.i./ha) | fresh weight inhibition rate, Alopecurus japonicus (Alopecurus japonicus; dose 15 g a.i./ha) | fresh weight inhibition rate, Polypogon fugax (Polypogon fugax; dose 7.5 g a.i./ha) | fresh weight inhibition rate, Polypogon fugax (Polypogon fugax; dose 15 g a.i./ha) | fresh weight inhibition rate, Sesbania cannabina (Sesbania cannabina; dose 7.5 g a.i./ha) | fresh weight inhibition rate, Sesbania cannabina (Sesbania cannabina; dose 15 g a.i./ha) | inhibition at 7.5 g/ha (Alopecurus japonicus; dose 7.5 g a.i./ha) [%] | inhibition at 15 g/ha (Alopecurus japonicus; dose 15 g a.i./ha) [%] | inhibition at 7.5 g/ha (Polypogon fugax; dose 7.5 g a.i./ha) [%] | inhibition at 15 g/ha (Polypogon fugax; dose 15 g a.i./ha) [%] | inhibition at 7.5 g/ha (Sesbania cannabina; dose 7.5 g a.i./ha) [%] | inhibition at 15 g/ha (Sesbania cannabina; dose 15 g a.i./ha) [%]
COCCOC(=O)C1(OC(=O)c2cc(-n3c(=O)cc(C(F)(F)F)n(C)c3=O)c(F)cc2Cl)CC1 [Compound 258] | A (A indicates that the inhibition rate was greater than or equal to 85% to 100%) | A (A indicates that the inhibition rate was greater than or equal to 85% to 100%) | A (A indicates that the inhibition rate was greater than or equal to 85% to 100%) | A (A indicates that the inhibition rate was greater than or equal to 85% to 100%) | A (A indicates that the inhibition rate was greater than or equal to 85% to 100%) | A (A indicates that the inhibition rate was greater than or equal to 85% to 100%) | – | – | – | – | – | –
COCCOC(=O)C(C)(C)OC(=O)c1cc(-n2c(=O)cc(C(F)(F)F)n(C)c2=O)c(F)cc1Cl [Compound 207] | A (A indicates that the inhibition rate was greater than or equal to 85% to 100%) | A (A indicates that the inhibition rate was greater than or equal to 85% to 100%) | A (A indicates that the inhibition rate was greater than or equal to 85% to 100%) | A (A indicates that the inhibition rate was greater than or equal to 85% to 100%) | A (A indicates that the inhibition rate was greater than or equal to 85% to 100%) | A (A indicates that the inhibition rate was greater than or equal to 85% to 100%) | – | – | – | – | – | –
COCCOC(=O)COC(=O)c1cc(-n2c(=O)cc(C(F)(F)F)n(C)c2=O)c(F)cc1Cl [Compound 3] | B (B indicates that the inhibition rate was greater than or equal to 70% to less than 85%) | A (A indicates that the inhibition rate was greater than or equal to 85% to 100%) | B (B indicates that the inhibition rate was greater than or equal to 70% to less than 85%) | A (A indicates that the inhibition rate was greater than or equal to 85% to 100%) | A (A indicates that the inhibition rate was greater than or equal to 85% to 100%) | A (A indicates that the inhibition rate was greater than or equal to 85% to 100%) | – | – | – | – | – | –
C=CCOCCOC(=O)C(C)(C)OC(=O)c1cc(-n2c(=O)cc(C(F)(F)F)n(C)c2=O)c(F)cc1Cl [Compound 214] | A (A indicates that the inhibition rate was greater than or equal to 85% to 100%) | A (A indicates that the inhibition rate was greater than or equal to 85% to 100%) | A (A indicates that the inhibition rate was greater than or equal to 85% to 100%) | A (A indicates that the inhibition rate was greater than or equal to 85% to 100%) | A (A indicates that the inhibition rate was greater than or equal to 85% to 100%) | A (A indicates that the inhibition rate was greater than or equal to 85% to 100%) | – | – | – | – | – | –
C=CCOC(=O)C(C)(C)OC(=O)c1cc(-n2c(=O)cc(C(F)(F)F)n(C)c2=O)ccc1Cl [Butafenacil, reference compound] | – | – | – | – | – | – | < 55 | < 55 | < 55 | 55 to 70 | 55 to 70 | 70 to 85
COC(=O)C(C)OC(=O)c1cc(-n2c(=O)cc(C(F)(F)F)n(C)c2=O)c(F)cc1Cl (stereo not drawn) [CK, reference compound] | – | – | – | – | – | – | < 55 | 55 to 70 | < 55 | 55 to 70 | 55 to 70 | 70 to 85
